We go through 50 compounds from the OPERA property sets (Mansouri et al. 2018).

Details in one data set: not given
What is called melting point is the temperature, or range, at which the solid turns liquid. As for `N=C(N)N`, the melting point is 50 °C.

In turn, `Oc1ccc(C(c2ccc(O)cc2)(C(F)(F)F)C(F)(F)F)cc1` gave a melting point of 162 °C.

One may read the boiling point as the temperature at which the vapour pressure of the liquid equals the pressure above it. For `C=CC(C)=CC`, the boiling point stood at 77 °C.

Turning to `C=CC1CC=CCC1` (centres undefined), the boiling point was found to be 128 °C, the log10 vapour pressure (mmHg) is 1.2, the melting point was -109 °C and the ready biodegradability result is “not readily biodegradable”.

For the compound `Cc1cc(C)on1`, the boiling point came to 143 °C.

Take `OCCCCCCCCCCCl`: the melting point was 12.5 °C.

`Cc1c(C2(c3cc(Br)c(O)c(Br)c3C)OS(=O)(=O)c3ccccc32)cc(Br)c(O)c1Br` came in with a melting point of 218 °C.

For `O=C(Oc1ccccc1)c1ccccc1`, the boiling point amounted to 314 °C, the log10 Koc (L/kg) is 3.16, the log10 vapour pressure (mmHg) was -2.77 and the melting point came to 71 °C.

In the case of `OCCNCCO`, the boiling point was 269 °C, the log10 Koc (L/kg) was 0.6, the log10 vapour pressure (mmHg) was -3.55 and the melting point was 28 °C. Besides, the ready biodegradability result is reported as “readily biodegradable”.

Compound `Cc1occc(=O)c1O` displayed a melting point of 162 °C.

Turning to `Cc1ccc(Nc2ccc(C)cc2)cc1`, the boiling point is 330 °C and the melting point turned out to be 79.8 °C.

Turning to `CCC(=O)C(=O)O`, the melting point stood at 33 °C.

`OCC(O)CN1CCN(c2ccccc2)CC1` (centres undefined) displayed a melting point of 105 °C.

For `CC(CBr)c1ccccc1` (centres undefined), the boiling point is 188 °C and the melting point was -59.3 °C.

Consider `C1C2C3C2C2C1C32` (centres undefined), for which the boiling point was 112 °C.

Take `C=C(C)C(CC)CC`: the boiling point is 110 °C and the melting point is -113 °C.

In turn, `CCOC(OCC)N(C)C` returned a boiling point of 129 °C.

Compound `CCCC(C)C(C)C` (centres undefined) showed a boiling point of 116 °C, a log10 biodegradation half-life (days) of 1.42 and a log10 vapour pressure (mmHg) of 1.37.

Take `C=CCC1(CC(C)C)C(=O)NC(=O)NC1=O`: the melting point turned out to be 138 °C.

`CC(C)CCCCCO`: the boiling point is 188 °C and the melting point is -106 °C.

On to `CCOC(=O)OCC`, for which the boiling point worked out at 126 °C, the log10 vapour pressure (mmHg) amounted to 1.03 and the melting point was -43 °C.

The compound `OC(c1ccc(Cl)cc1)c1cc2ccccc2o1` (centres undefined) gave a melting point of 48.5 °C.

Turning to `CN(C)c1ccc(Cc2ccc(N(C)C)cc2)cc1`, the boiling point stood at 390 °C, the log10 Koc (L/kg) came out at 3.96, the melting point is 91.5 °C and the ready biodegradability result is “not readily biodegradable”.

On to `CS(=O)(=O)c1c(F)c(F)c(F)c(F)c1F`, for which the log10 Koc (L/kg) stood at 1.46.

As for `O=C(OC[C@H]1O[C@](O)(COC(=O)c2cccnc2)[C@@H](OC(=O)c2cccnc2)[C@@H]1OC(=O)c1cccnc1)c1cccnc1`, the melting point is 141 °C.

In the case of `CCCCCCCCCCCC(=O)[O][Na]`, the ready biodegradability result is recorded as “readily biodegradable”.

On to `CC1CCC(=O)N1C` (centres undefined), for which the boiling point was 217 °C.

`C=CCSC#N` showed a boiling point of 161 °C.

For the compound `CCCCCCOC(=O)CC`, the boiling point came out at 190 °C and the melting point is -57.5 °C.

The compound `O=C(O)C1c2ccccc2-c2ccccc21` gave a melting point of 230 °C.

`OC[C@H]1O[C@H](OC[C@H]2O[C@H](O)[C@H](O)[C@@H](O)[C@@H]2O)[C@H](O)[C@@H](O)[C@H]1O` registered a melting point of 86 °C.

Consider `CCOc1ccccc1Cl`, for which the boiling point came to 210 °C.

In the case of `O=C(O)/C=C/c1ccc(Cl)cc1Cl`, the melting point was found to be 234 °C.

In the case of `CC(C)c1ccccc1`, the boiling point worked out at 152 °C, the log10 Henry constant (atm·m³/mol) is -1.94, the log10 Koa worked out at 3.98 and the log10 biodegradation half-life (days) is 1.18. For the same compound, the log10 vapour pressure (mmHg) came to 0.653, the melting point was -96 °C and the ready biodegradability result was “readily biodegradable”.

`Oc1cccc(Cl)c1Cl`: the boiling point came out at 206 °C, the log10 Koc (L/kg) came to 2.66, the log10 vapour pressure (mmHg) was -1.24 and the melting point was 58 °C. For the same compound, the ready biodegradability result is recorded as “not readily biodegradable”.

Compound `Oc1ccc(C2CCCCC2)cc1` returned a boiling point of 294 °C and a melting point of 133 °C.

Turning to `O=C(Cl)c1ccccc1C(=O)Cl`, the boiling point stood at 281 °C, the log10 vapour pressure (mmHg) is -1.79 and the melting point was found to be 15.5 °C.

The compound `O=C1CN=C(c2ccccc2)c2cc(Cl)ccc2N1CC(F)(F)F` displayed a melting point of 165 °C.

Consider `CC(C)CC(=O)c1ccccc1`, for which the boiling point was found to be 236 °C.

Consider `O=C(/C=C/C=C/c1ccc2c(c1)OCO2)N1CCCCC1`, for which the melting point was found to be 132 °C.

With `CCCCCCCCCCCCCCCCCC(=O)OCCC`, the melting point worked out at 28.9 °C.

In the case of `C1=C(c2ccccc2)CCCC1`, the boiling point was found to be 252 °C and the melting point was -11 °C.

In the case of `CCCC(C)O` (centres undefined), the boiling point stood at 119 °C, the log10 Henry constant (atm·m³/mol) is -4.83, the log10 vapour pressure (mmHg) was determined as 0.786 and the melting point is -73 °C. For the same compound, the ready biodegradability result is on record as “readily biodegradable”.

Take `C[Si]1(C)O[Si](C)(C)O[Si](C)(C)O[Si](C)(C)O[Si](C)(C)O[Si](C)(C)O[Si](C)(C)O[Si](C)(C)O[Si](C)(C)O1`: the log10 vapour pressure (mmHg) is -4.75.

`COc1ccc2cc3[n+](cc2c1OC)CCc1cc2c(cc1-3)OCO2` came in with a melting point of 145 °C.

Staying with this data set, now noted: fish.
For the compound `Cc1ccc([N+](=O)[O-])cc1O`, the log10 BCF is 0.85 and the log10 biotransformation half-life (days) was -1.24.

In the case of `CCNc1ccc(C)cc1`, the log10 BCF is 0.61.

On to `ClC(Cl)C(Cl)Cl`, for which the log10 BCF came out at 1.11 and the log10 biotransformation half-life (days) is -0.67.

With `Clc1ccc(Cl)c(-c2ccccc2)c1`, the log10 BCF is 3.98 and the log10 biotransformation half-life (days) is 2.38.

As for `Cc1cc(C)c(O)c(C)c1`, the log10 BCF was 0.93 and the log10 biotransformation half-life (days) is -1.3.

For the compound `C=CC1CC=CCC1` (centres undefined), the log10 BCF is 2.22 and the log10 biotransformation half-life (days) was -0.41.

For the compound `CN(C)c1ccc(Cc2ccc(N(C)C)cc2)cc1`, the log10 biotransformation half-life (days) is -0.04.

For `CC(C)c1ccccc1`, the log10 BCF worked out at 1.55.

In the case of `Oc1cccc(Cl)c1Cl`, the log10 BCF came to 1.13.
